Reference: PMC6496959 (Journal of medicinal chemistry, 2018)

These compounds were tested on A/Guangzhou/GIRD/07/2009 (H1N1) (assay: microbe, parasite or virus in culture). Settings: Influenza A virus, H1N1, MDCK, 48 h, read-out: Activity (EC50, μM).
Assay type: cell-based

`C[C@H]1[C@H](NCc2cncs2)C[C@H]2C[C@@H]1C2(C)C` [Compound 9] and `C[C@H]1[C@H](NCc2nccs2)C[C@H]2C[C@@H]1C2(C)C` [Compound 8] cannot be ordered by EC50: > 50 µM for the first, > 50 µM for the second.

`C[C@H]1[C@H](NCc2ccc(Cl)s2)C[C@H]2C[C@@H]1C2(C)C` [Compound 35] and `C[C@H]1[C@H](NCc2ccc(Br)s2)C[C@H]2C[C@@H]1C2(C)C` [Compound 37] cannot be ordered by EC50: > 0.78 µM for the first, > 0.78 µM for the second.

`C[C@H]1[C@H](NCc2ccc(C(C)(C)C)s2)C[C@H]2C[C@@H]1C2(C)C` [Compound 39] and `Cc1ccc(CN[C@@H]2C[C@H]3C[C@@H]([C@H]2C)C3(C)C)s1` [Compound 36] cannot be ordered by EC50: > 0.78 µM for the first, > 0.78 µM for the second.

`C[C@H]1[C@H](NCc2sccc2C2CCCCC2)C[C@H]2C[C@@H]1C2(C)C` [Compound 20] and `C[C@H]1[C@H](NCc2cc(C3CCCCC3)cs2)C[C@H]2C[C@@H]1C2(C)C` [Compound 32] cannot be ordered by EC50: > 0.78 µM for the first, > 0.78 µM for the second.

`Cc1n[nH]cc1CN[C@@H]1C[C@H]2C[C@@H]([C@H]1C)C2(C)C` [Compound 3] and `Cc1ccsc1CN[C@@H]1C[C@H]2C[C@@H]([C@H]1C)C2(C)C` [Compound 11] cannot be ordered by EC50: > 50 µM for the first, > 0.78 µM for the second.

`CCc1ccsc1CN[C@@H]1C[C@H]2C[C@@H]([C@H]1C)C2(C)C` [Compound 12] and `CCCc1ccsc1CN[C@@H]1C[C@H]2C[C@@H]([C@H]1C)C2(C)C` [Compound 14] cannot be ordered by EC50: > 0.78 µM for the first, > 0.78 µM for the second.

`CCc1ccc(CN[C@@H]2C[C@H]3C[C@@H]([C@H]2C)C3(C)C)s1` [Compound 38] and `CSc1ccc(CN[C@@H]2C[C@H]3C[C@@H]([C@H]2C)C3(C)C)s1` [Compound 40] cannot be ordered by EC50: > 0.78 µM for the first, > 0.78 µM for the second.

`C[C@H]1[C@H](NCc2sccc2Br)C[C@H]2C[C@@H]1C2(C)C` [Compound 13] and `CCOc1ccsc1CN[C@@H]1C[C@H]2C[C@@H]([C@H]1C)C2(C)C` [Compound 16] cannot be ordered by EC50: > 0.78 µM for the first, > 0.78 µM for the second.

`C[C@H]1[C@H](NCc2cnccn2)C[C@H]2C[C@@H]1C2(C)C` [Compound 2] and `C[C@H]1[C@H](NCc2cncnc2)C[C@H]2C[C@@H]1C2(C)C` [Compound 1] cannot be ordered by EC50: > 50 µM for the first, > 50 µM for the second.

`C[C@H]1[C@H](NCc2cc(-c3ccccc3)cs2)C[C@H]2C[C@@H]1C2(C)C` [Compound 34] and `C[C@H]1[C@H](NCc2cc(-c3ccsc3)cs2)C[C@H]2C[C@@H]1C2(C)C` [Compound 33] cannot be ordered by EC50: > 0.78 µM for the first, > 0.78 µM for the second.

`C[C@H]1[C@H](NCc2sccc2-c2ccsc2)C[C@H]2C[C@@H]1C2(C)C` [Compound 21] and `C[C@H]1[C@H](NCc2sccc2-c2ccccc2)C[C@H]2C[C@@H]1C2(C)C` [Compound 22] cannot be ordered by EC50: > 0.78 µM for the first, > 0.78 µM for the second.

`C[C@H]1[C@H](NCc2ccco2)C[C@H]2C[C@@H]1C2(C)C` [Compound 5] and `C=Cc1csc(CN[C@@H]2C[C@H]3C[C@@H]([C@H]2C)C3(C)C)c1` [Compound 28] cannot be ordered by EC50: > 50 µM for the first, > 0.78 µM for the second.

`C[C@H]1[C@H](NCc2ccc(-c3ccc(Br)s3)s2)C[C@H]2C[C@@H]1C2(C)C` [Compound 41] and `CCc1csc(CN[C@@H]2C[C@H]3C[C@@H]([C@H]2C)C3(C)C)c1` [Compound 25] cannot be ordered by EC50: > 0.78 µM for the first, > 0.78 µM for the second.

`CCCc1csc(CN[C@@H]2C[C@H]3C[C@@H]([C@H]2C)C3(C)C)c1` [Compound 26] and `C=C(C)c1csc(CN[C@@H]2C[C@H]3C[C@@H]([C@H]2C)C3(C)C)c1` [Compound 29] cannot be ordered by EC50: > 0.78 µM for the first, > 0.78 µM for the second.

For `C[C@H]1[C@H](NCc2cc(C3CCCC3)cs2)C[C@H]2C[C@@H]1C2(C)C` [Compound 31], the EC50 was > 0.78 µM.

These compounds were tested on influenza virus (A/PR/8/34) (assay: not given). Settings: not given.

With `C[C@H]1[C@H](NCc2sccc2C2CC2)C[C@H]2C[C@@H]1C2(C)C` [Compound 18] the “inhibition of virus-induced aggregation of chicken erythrocytes” value was “did not inhibit”.

What follows are compounds tested on MDCK cells (assay: not given). Settings: minimal change in cell morphology after 48 h incubation.

With `C[C@H]1[C@H](NCc2cncs2)C[C@H]2C[C@@H]1C2(C)C` [Compound 9] the “MCC (minimum cytotoxic concentration)” value was >100 µM.
`Cc1csc(CN[C@@H]2C[C@H]3C[C@@H]([C@H]2C)C3(C)C)n1` [Compound 10] was tested, and the “MCC (minimum cytotoxic concentration)” value was >100 µM.
`Cc1n[nH]cc1CN[C@@H]1C[C@H]2C[C@@H]([C@H]1C)C2(C)C` [Compound 3] was tested, and the “MCC (minimum cytotoxic concentration)” value was >100 µM.
With `C[C@H]1[C@H](NCc2ccoc2)C[C@H]2C[C@@H]1C2(C)C` [Compound 4] the “MCC (minimum cytotoxic concentration)” value was >100 µM.
`C[C@H]1[C@H](NCc2cnccn2)C[C@H]2C[C@@H]1C2(C)C` [Compound 2] was tested, and the “MCC (minimum cytotoxic concentration)” value was >100 µM.
`C[C@H]1[C@H](NCc2nccs2)C[C@H]2C[C@@H]1C2(C)C` [Compound 8] was tested, and the “MCC (minimum cytotoxic concentration)” value was >100 µM.
For `C[C@H]1[C@H](NCc2cncnc2)C[C@H]2C[C@@H]1C2(C)C` [Compound 1], the “MCC (minimum cytotoxic concentration)” value was >100 µM.
`NC12CC3CC(CC(C3)C1)C2` [Amantadine, amantadine, reference compound] was tested, and the “MCC (minimum cytotoxic concentration)” value was >100 µM.

First: C[C@H]1[C@H](NCc2cc(Br)cs2)C[C@H]2C[C@@H]1C2(C)C [Compound 23]
Second: Cc1csc(CN[C@@H]2C[C@H]3C[C@@H]([C@H]2C)C3(C)C)c1 [Compound 24]
The “MCC (minimum cytotoxic concentration)” value of the first is 2-fold lower: 6.25 µM for the first, 12.5 µM for the second.

Compared with `C[C@H]1[C@H](NCc2ccc(Cl)s2)C[C@H]2C[C@@H]1C2(C)C` [Compound 35], `C[C@H]1[C@H](NCc2ccc(Br)s2)C[C@H]2C[C@@H]1C2(C)C` [Compound 37] is 1.7-fold higher in “MCC (minimum cytotoxic concentration)” value: 25 µM for the first, 43 µM for the second.

`C=Cc1ccsc1CN[C@@H]1C[C@H]2C[C@@H]([C@H]1C)C2(C)C` [Compound 17] and `C[C@H]1[C@H](NCc2sccc2Br)C[C@H]2C[C@@H]1C2(C)C` [Compound 13] are the same in “MCC (minimum cytotoxic concentration)” value: 50 µM for the first, 50 µM for the second.

`C[C@H]1[C@H](NCc2ccc(C(C)(C)C)s2)C[C@H]2C[C@@H]1C2(C)C` [Compound 39] and `Cc1ccc(CN[C@@H]2C[C@H]3C[C@@H]([C@H]2C)C3(C)C)s1` [Compound 36] are the same in “MCC (minimum cytotoxic concentration)” value: 0.78 µM for the first, 0.78 µM for the second.

Compared with `C[C@H]1[C@H](NCc2sccc2C2CCCC2)C[C@H]2C[C@@H]1C2(C)C` [Compound 19], `C[C@H]1[C@H](NCc2sccc2C2CCCCC2)C[C@H]2C[C@@H]1C2(C)C` [Compound 20] is 8-fold lower in “MCC (minimum cytotoxic concentration)” value: 12.5 µM for the first, 1.56 µM for the second.

Going from `CCc1ccsc1CN[C@@H]1C[C@H]2C[C@@H]([C@H]1C)C2(C)C` [Compound 12] to `CCCc1ccsc1CN[C@@H]1C[C@H]2C[C@@H]([C@H]1C)C2(C)C` [Compound 14], the “MCC (minimum cytotoxic concentration)” value rises from 25 µM to 50 µM (2-fold).

Going from `CCc1ccc(CN[C@@H]2C[C@H]3C[C@@H]([C@H]2C)C3(C)C)s1` [Compound 38] to `CSc1ccc(CN[C@@H]2C[C@H]3C[C@@H]([C@H]2C)C3(C)C)s1` [Compound 40], the “MCC (minimum cytotoxic concentration)” value rises from 1.56 µM to 25 µM (16-fold).

Going from `C[C@H]1[C@H](NCc2cc(-c3ccccc3)cs2)C[C@H]2C[C@@H]1C2(C)C` [Compound 34] to `C[C@H]1[C@H](NCc2cc(-c3ccsc3)cs2)C[C@H]2C[C@@H]1C2(C)C` [Compound 33], the “MCC (minimum cytotoxic concentration)” value rises from 5 µM to 25 µM (5-fold).

`C[C@H]1[C@H](NCc2sccc2-c2ccsc2)C[C@H]2C[C@@H]1C2(C)C` [Compound 21] and `C[C@H]1[C@H](NCc2sccc2-c2ccccc2)C[C@H]2C[C@@H]1C2(C)C` [Compound 22] are the same in “MCC (minimum cytotoxic concentration)” value: 12.5 µM for the first, 12.5 µM for the second.

`CCCCc1csc(CN[C@@H]2C[C@H]3C[C@@H]([C@H]2C)C3(C)C)c1` [Compound 27] and `CCCc1csc(CN[C@@H]2C[C@H]3C[C@@H]([C@H]2C)C3(C)C)c1` [Compound 26] are the same in “MCC (minimum cytotoxic concentration)” value: 12.5 µM for the first, 12.5 µM for the second.

First: C[C@H]1[C@H](NCc2ccco2)C[C@H]2C[C@@H]1C2(C)C [Compound 5]
Second: C[C@H]1[C@H](NCc2cccs2)C[C@H]2C[C@@H]1C2(C)C [Compound 7]
The “MCC (minimum cytotoxic concentration)” value of the first is 2-fold higher: 50 µM for the first, 25 µM for the second.

First: C[C@H]1[C@H](NCc2ccc(-c3ccc(Br)s3)s2)C[C@H]2C[C@@H]1C2(C)C [Compound 41]
Second: C[C@H]1[C@H](NCc2ccsc2)C[C@H]2C[C@@H]1C2(C)C [Compound 6]
The “MCC (minimum cytotoxic concentration)” value of the first is 64-fold lower: 0.78 µM for the first, 50 µM for the second.

First: Cc1ccsc1CN[C@@H]1C[C@H]2C[C@@H]([C@H]1C)C2(C)C [Compound 11]
Second: CCOc1ccsc1CN[C@@H]1C[C@H]2C[C@@H]([C@H]1C)C2(C)C [Compound 16]
The “MCC (minimum cytotoxic concentration)” value of the first is 5-fold lower: 10 µM for the first, 50 µM for the second.

Going from `C[C@H]1[C@H](NCc2cc(C3CCCCC3)cs2)C[C@H]2C[C@@H]1C2(C)C` [Compound 32] to `C[C@H]1[C@H](NCc2cc(C3CCCC3)cs2)C[C@H]2C[C@@H]1C2(C)C` [Compound 31], the “MCC (minimum cytotoxic concentration)” value rises from 0.78 µM to 1.56 µM (2-fold).

First: C=Cc1csc(CN[C@@H]2C[C@H]3C[C@@H]([C@H]2C)C3(C)C)c1 [Compound 28]
Second: C=C(C)c1csc(CN[C@@H]2C[C@H]3C[C@@H]([C@H]2C)C3(C)C)c1 [Compound 29]
The “MCC (minimum cytotoxic concentration)” value of the first is 4-fold lower: 6.25 µM for the first, 25 µM for the second.

`C[C@H]1[C@H](NCc2cc(C3CC3)cs2)C[C@H]2C[C@@H]1C2(C)C` [Compound 30] and `CCc1csc(CN[C@@H]2C[C@H]3C[C@@H]([C@H]2C)C3(C)C)c1` [Compound 25] are the same in “MCC (minimum cytotoxic concentration)” value: 25 µM for the first, 25 µM for the second.

In the case of `CCCCc1ccsc1CN[C@@H]1C[C@H]2C[C@@H]([C@H]1C)C2(C)C` [Compound 15], the “MCC (minimum cytotoxic concentration)” value was 25 µM.
